This passage reports inhibition of growth, pest or weed control and melting point results from patent US11185073B2, “Microbiocidal quinoline (thio)carboxamide derivatives” (SYNGENTA PARTICIPATIONS AG, priority 2017, dated 2021).

Series [1] relates to Monographella nivalis (Microdochium nivale). Kind of series: Monographella nivalis (Microdochium nivale) / liquid culture (foot rot cereals). Type of series: cell-based. Particulars: 96 h, growth inhibition photometrically 4-5 days after application, compared to untreated control.
Series [2] concerns Magnaporthe grisea (Pyricularia oryzae). Description: microbe, parasite or virus in culture. Particulars: 72 h, read-out: control of Magnaporthe grisea. It is filed as cell-based.
The test system of series [3] is Botryotinia fuckeliana (Botrytis cinerea). Description: Botryotinia fuckeliana (Botrytis cinerea) / liquid culture (gray mould). It is filed as cell-based. Conditions: 72 h, growth inhibition photometrically 3-4 days after application, compared to untreated control.
Series [4] has as its system Glomerella lagenarium (Colletotrichum lagenarium). Description: Glomerella lagenarium (Colletotrichum lagenarium) / liquid culture (anthracnose). It is filed as cell-based. Conditions: Colletotrichum orbiculare, growth inhibition photometrically 3-4 days after application, compared to untreated control.
In series [5] the test system is Gibberella zeae (Fusarium graminearum). Kind of series: whole plant or invertebrate. It is filed as in vivo. Particulars: in Triticum aestivum, read-out: control of Gibberella zeae.
Series [6] concerns Fusarium culmorum. Description: microbe, parasite or virus in culture. It is filed as cell-based. Conditions: 72 h, read-out: control of Fusarium culmorum.
For series [7], the system named is Fusarium culmorum. Kind of series: whole plant or invertebrate. It is filed as in vivo. Conditions: in Triticum aestivum, read-out: control of Fusarium culmorum.

Turning to `Cc1c(C(=O)NC(C)(COC2CCC2)CC(F)(F)F)cnc2c(F)cccc12` (centres unmarked) [E.007, N-[1-(cyclo-butoxymethyl)-3,3,3-trifluoro-1-methyl-propyl]-8-fluoro-4-methyl-quinoline-3-carboxamide], the inhibition of growth at 20 ppm in series [1], in series [2], in series [3], in series [4] and in series [6] was at least 80% each time. Also, the pest or weed control at 200 ppm in series [5] and in series [7] was at least 80% each time.

As usually defined, the melting point is the temperature of the solid-liquid transition. Turning to `COCC(C)(CC(C)C)NC(=O)c1cnc2c(F)cccc2c1` (centres unmarked) [E.032, 8-fluoro-N-[1-(methoxymethyl)-1,3-dimethyl-butyl]quinoline-3-carboxamide], the melting point fell in the range of 136 to 138 °C. Further, the inhibition of growth at 20 ppm in series [3] is at least 80%. The inhibition of growth at 20 ppm in series [6] is at least 80%.

In the case of `CC(COC1CCC1)(CC(F)(F)F)NC(=O)c1cnc2c(Cl)cccc2c1` (centres unmarked) [E.012, 8-chloro-N-[1-(cyclobutoxymethyl)-3,3,3-trifluoro-1-methyl-propyl]-quinoline-3-carboxamide], the inhibition of growth at 20 ppm in series [1], in series [2], in series [3], in series [4] and in series [6] was at least 80% in each case. The pest or weed control at 200 ppm in series [5] and in series [7] was at least 80% in each case.

Turning to `CC(C)COCC(C)(CC(C)C)NC(=O)c1cnc2c(F)cccc2c1` (centres unmarked) [E.025, 8-fluoro-N-[1-(iso-butoxymethyl)-1,3-dimethyl-butyl]-quinoline-3-carboxamide], the inhibition of growth at 20 ppm in series [1], in series [2], in series [3], in series [4] and in series [6] was at least 80% throughout. Besides, the pest or weed control at 200 ppm in series [5] and in series [7] was at least 80% each time.

`CC1(C)CC(OCC(C)(CC(F)(F)F)NC(=O)c2cnc3c(F)cccc3c2)C1` (centres unmarked) [E.004, N-[1-[(3,3-dimethyl-cyclobutoxy)-methyl]-3,3,3-trifluoro-1-methyl-propyl]-8-fluoro-quinoline-3-carboxamide]: the melting point fell in the range of 80 to 84 °C. Further, the inhibition of growth at 20 ppm in series [1] was at least 80%. In series [2], the inhibition of growth at 20 ppm is at least 80%. For the same molecule, in series [3], the inhibition of growth at 20 ppm is at least 80%. This molecule showed an inhibition of growth at 20 ppm in series [4] of at least 80%. Also, the inhibition of growth at 20 ppm in series [6] is at least 80%. In addition, in series [7], the pest or weed control at 200 ppm is at least 80%.

`C[C@](COC1CCCCC1)(CC(F)(F)F)NC(=O)c1cnc2c(F)cccc2c1` [E.016, N-[(1R)-1-(cyclo-hexoxymethyl)-3,3,3-trifluoro-1-methyl-propyl]-8-fluoro-quinoline-3-carboxamide] returned a melting point of 80 to 85 °C. The same molecule gave an inhibition of growth at 20 ppm in series [1] of at least 80%. In addition, the inhibition of growth at 20 ppm in series [2] is at least 80%. In addition, the inhibition of growth at 20 ppm in series [3] was at least 80%. Besides, in series [4], the inhibition of growth at 20 ppm was at least 80%. Further, the inhibition of growth at 20 ppm in series [6] was at least 80%. For the same molecule, the pest or weed control at 200 ppm in series [7] is at least 80%.

Molecule `CC(COc1ccc(Cl)cc1)(CC(F)(F)F)NC(=O)c1cnc2c(F)cccc2c1` (centres unmarked) [E.005, N-[1-[(4-chloro-phenoxy)methyl]-3,3,3-trifluoro-1-methyl-propyl]-8-fluoro-quinoline-3-carboxamide] yielded a melting point of 94 to 96 °C. Besides, the inhibition of growth at 20 ppm in series [1] was at least 80%. Also, in series [2], the inhibition of growth at 20 ppm was at least 80%. In series [3], this molecule displayed an inhibition of growth at 20 ppm of at least 80%. In series [4], the inhibition of growth at 20 ppm was at least 80%. The inhibition of growth at 20 ppm in series [6] is at least 80%. Moreover, the pest or weed control at 200 ppm in series [7] is at least 80%.

As to `C=C(C)COCC(C)(CC(C)C)NC(=O)c1cnc2c(F)cccc2c1` (centres unmarked) [E.020, N-[1,3-dimethyl-1-(2-methylallyloxy-methyl)butyl]-8-fluoro-quinoline-3-carboxamide], the inhibition of growth at 20 ppm in series [1], in series [2], in series [3], in series [4] and in series [6] was at least 80% in each case. Further, the pest or weed control at 200 ppm in series [5] and in series [7] was at least 80% in each case.

For the molecule `CC(C)CC(C)(COC1CCC1)NC(=O)c1cnc2c(F)cccc2c1` (centres unmarked) [E.023, N-[1-(cyclo-butoxymethyl)-1,3-dimethyl-butyl]-8-fluoro-quinoline-3-carboxamide], the inhibition of growth at 20 ppm in series [1], in series [2], in series [3], in series [4] and in series [6] was at least 80% throughout. Moreover, the pest or weed control at 200 ppm in series [5] and in series [7] was at least 80% each time.

Take `CC(C)CC(C)(COCc1ccccc1)NC(=O)c1cnc2c(F)cccc2c1` (centres unmarked) [E.030, N-[1-(benzyloxy-methyl)-1,3-dimethyl-butyl]-8-fluoro-quinoline-3-carboxamide]: the melting point was 120 to 122 °C. The inhibition of growth at 20 ppm in series [1] is at least 80%. Also, in series [2], the inhibition of growth at 20 ppm was at least 80%. The same molecule displayed an inhibition of growth at 20 ppm in series [3] of at least 80%. The inhibition of growth at 20 ppm in series [4] was at least 80%. Moreover, in series [6], the inhibition of growth at 20 ppm is at least 80%.

For the molecule `CC(COC1CCCCC1)(CC(F)(F)F)NC(=O)c1cnc2c(F)cccc2c1` (centres unmarked) [E.027, N-[1-(cyclohexoxy-methyl)-3,3,3-trifluoro-1-methyl-propyl]-8-fluoro-quinoline-3-carboxamide], the inhibition of growth at 20 ppm in series [1], in series [2], in series [3], in series [4] and in series [6] was at least 80% in each case. Besides, the pest or weed control at 200 ppm in series [5] and in series [7] was at least 80% in each case.

With `CC(COc1ccccc1)(CC(F)(F)F)NC(=O)c1cnc2c(F)cccc2c1` (centres unmarked) [E.019, 8-fluoro-N-[3,3,3-trifluoro-1-methyl-1-(phenoxy-methyl)propyl]-quinoline-3-carboxamide], the inhibition of growth at 20 ppm in series [1], in series [2], in series [3], in series [4] and in series [6] was at least 80% throughout. Moreover, the pest or weed control at 200 ppm in series [5] and in series [7] was at least 80% in each case.

Turning to `CC(COC1CCC1)(CC(F)(F)F)NC(=O)c1cnc2c(F)c(F)ccc2c1` (centres unmarked) [E.008, N-[1-(cyclo-butoxymethyl)-3,3,3-trifluoro-1-methyl-propyl]-7,8-difluoro-quinoline-3-carboxamide], the inhibition of growth at 20 ppm in series [1], in series [2], in series [3], in series [4] and in series [6] was at least 80% in each case. Moreover, the pest or weed control at 200 ppm in series [5] and in series [7] was at least 80% in each case.
